Test results as given in ChEMBL document CHEMBL1138190, “Synthesis and antibacterial activity of novel C12 vinyl ketolides” (J Med Chem, 2006).
Converted amounts (≈) assume the structure as drawn. The source made the active and inactive calls. No cut-off for these calls is given here.

Experiments:
Haemophilus influenzae [1] = experiment: Antibacterial activity against Haemophilus influenzae 2762; format: functional
Staphylococcus aureus [2] = experiment: Antibacterial activity against Staphylococcus aureus 29213; format: functional
Staphylococcus aureus [3] = experiment: Antibacterial activity against Staphylococcus aureus 33591; format: functional
Streptococcus pneumoniae [4] = experiment: Antibacterial activity against Streptococcus pneumoniae Erm 7985; format: functional
Haemophilus influenzae [5] = experiment: Antibacterial activity against Haemophilus influenzae 49247; format: functional
Streptococcus pneumoniae [6] = experiment: Antibacterial activity against Streptococcus pneumoniae Mef 6966; format: functional
Streptococcus pneumoniae [7] = experiment: Antibacterial activity against Streptococcus pneumoniae Erm 6849; format: functional
Streptococcus pneumoniae [8] = experiment: Antibacterial activity against Streptococcus pneumoniae Erm 3120; format: functional
[9] = Plasma half life in Sprague-Dawley rat at 15 mg/kg, po; format: ADME, organism-based; design: dose 15 mg/kg, route oral
Streptococcus pneumoniae [10] = experiment: Antibacterial activity against Streptococcus pneumoniae Erm 8947; format: functional
Streptococcus pneumoniae [11] = experiment: Antibacterial activity against Streptococcus pneumoniae Mef 3449; format: functional
Streptococcus pneumoniae [12] = experiment: Antibacterial activity against Streptococcus pneumoniae Erm 8339; format: functional
[13] = Lung-to-plasma AUC ratio in Sprague-Dawley rat at 5 mg/kg, iv; format: ADME, organism-based; design: dose 5 mg/kg, route intravenous; conditions: lung and plasma
Rattus norvegicus [14] = experiment: Plasma AUC in Sprague-Dawley rat at 5 mg/kg, iv; format: ADME, organism-based; design: dose 5 mg/kg, route intravenous; conditions: in vivo
Streptococcus pneumoniae [15] = experiment: Antibacterial activity against Streptococcus pneumoniae Erm 6396; format: functional
Rattus norvegicus [16] = experiment: Efficacy against Streptococcus pneumoniae Erm in Sprague-Dawley rat lung infection model at 50 mg/kg; format: functional, organism-based; design: dose 50 mg/kg
Streptococcus pneumoniae [17] = experiment: Antibacterial activity against Streptococcus pneumoniae 49619; format: functional
Streptococcus pneumoniae [18] = experiment: Antibacterial activity against Streptococcus pneumoniae Erm S 4085; format: functional
Streptococcus pneumoniae [19] = experiment: Antibacterial activity against Streptococcus pneumoniae Mef 5654; format: functional
Streptococcus pneumoniae [20] = experiment: Antibacterial activity against Streptococcus pneumoniae Erm S 4297; format: functional
[21] = Lung half life in Sprague-Dawley rat at 15 mg/kg, po; format: ADME, organism-based; design: dose 15 mg/kg, route oral
[22] = tested on: Staphylococcus epidermidis; experiment: Antibacterial activity against Staphylococcus epidermidis 14990; format: functional
Streptococcus pneumoniae [23] = experiment: Antibacterial activity against Streptococcus pneumoniae Mef 1556; format: functional
Streptococcus pneumoniae [24] = experiment: Antibacterial activity against Streptococcus pneumoniae Erm 5399; format: functional
Streptococcus pneumoniae [25] = experiment: Antibacterial activity against Streptococcus pneumoniae Mef 983; format: functional
[26] = Plasma half life in Sprague-Dawley rat at 5 mg/kg, iv; format: ADME, organism-based; design: dose 5 mg/kg, route intravenous
Streptococcus pneumoniae [27] = experiment: Antibacterial activity against Streptococcus pneumoniae Mef S 3427; format: functional
Streptococcus pneumoniae [28] = experiment: Antibacterial activity against Streptococcus pneumoniae Erm 8257; format: functional
Streptococcus pneumoniae [29] = experiment: Antibacterial activity against Streptococcus pneumoniae Erm 4290; format: functional
Streptococcus pneumoniae [30] = experiment: Antibacterial activity against Streptococcus pneumoniae Erm 4589; format: functional
Streptococcus pneumoniae [31] = experiment: Antibacterial activity against Streptococcus pneumoniae Erm 867; format: functional
Streptococcus pneumoniae [32] = experiment: Antibacterial activity against Streptococcus pneumoniae Mef 1566; format: functional
Streptococcus pneumoniae [33] = experiment: Antibacterial activity against Streptococcus pneumoniae Erm 2218; format: functional
Streptococcus pneumoniae [34] = experiment: Antibacterial activity against Streptococcus pneumoniae Erm 10279; format: functional
Streptococcus pneumoniae [35] = experiment: Antibacterial activity against Streptococcus pneumoniae Mef 9959; format: functional
Streptococcus pneumoniae [36] = experiment: Antibacterial activity against Streptococcus pneumoniae Mef 4331; format: functional
Streptococcus pneumoniae [37] = experiment: Antibacterial activity against Streptococcus pneumoniae Mef 2880; format: functional
Streptococcus pneumoniae [38] = experiment: Antibacterial activity against Streptococcus pneumoniae Mef S 3435; format: functional
Streptococcus pneumoniae [39] = experiment: Antibacterial activity against Streptococcus pneumoniae Mef 953; format: functional
[40] = Volume of distribution in Sprague-Dawley rat at 5 mg/kg, iv and 15 mg/kg, po; format: ADME, organism-based; conditions: in vivo, read-out: Vdss
Enterococcus faecalis [41] = experiment: Antibacterial activity against Enterococcus faecalis 29212; format: functional
Streptococcus pneumoniae [42] = experiment: Antibacterial activity against Streptococcus pneumoniae Mef 3855; format: functional
Streptococcus pneumoniae [43] = experiment: Antibacterial activity against Streptococcus pneumoniae Erm 5415; format: functional
Streptococcus pneumoniae [44] = experiment: Antibacterial activity against Streptococcus pneumoniae Erm 5554; format: functional
[45] = Oral bioavailability in Sprague-Dawley rat at 15 mg/kg, po; format: ADME, organism-based; conditions: in vivo
Streptococcus pneumoniae [46] = experiment: Antibacterial activity against Streptococcus pneumoniae Mef 4126; format: functional
Streptococcus pneumoniae [47] = experiment: Antibacterial activity against Streptococcus pneumoniae Erm 8919; format: functional
Streptococcus pneumoniae [48] = experiment: Antibacterial activity against Streptococcus pneumoniae Mef 1790; format: functional
Streptococcus pneumoniae [49] = experiment: Antibacterial activity against Streptococcus pneumoniae Mef 9142; format: functional
Streptococcus pneumoniae [50] = experiment: Antibacterial activity against Streptococcus pneumoniae Erm 5354; format: functional
Streptococcus pneumoniae [51] = experiment: Antibacterial activity against Streptococcus pneumoniae 280-962; format: functional
Streptococcus pneumoniae [52] = experiment: Antibacterial activity against Streptococcus pneumoniae Erm 5590; format: functional
Enterococcus faecalis [53] = experiment: Antibacterial activity against Enterococcus faecalis bc11148-2; format: functional
Streptococcus pneumoniae [54] = experiment: Antibacterial activity against Streptococcus pneumoniae Mef 5649; format: functional
Streptococcus pneumoniae [55] = experiment: Antibacterial activity against Streptococcus pneumoniae Mef 2382; format: functional
Streptococcus pneumoniae [56] = experiment: Antibacterial activity against Streptococcus pneumoniae 297-749; format: functional
[57] = tested on: Staphylococcus epidermidis; experiment: Antibacterial activity against Staphylococcus epidermidis f50654; format: functional
Streptococcus pneumoniae [58] = experiment: Antibacterial activity against Streptococcus pneumoniae Mef 41; format: functional
Streptococcus pneumoniae [59] = experiment: Antibacterial activity against Streptococcus pneumoniae Erm 6388; format: functional
Streptococcus pyogenes = experiment: Antibacterial activity against Streptococcus pyogenes 8668; format: functional
Rattus norvegicus [60] = experiment: Efficacy against Haemophilus influenzae in Sprague-Dawley rat lung infection model at 50 mg/kg; format: functional, organism-based; design: dose 50 mg/kg
Streptococcus pneumoniae [61] = experiment: Antibacterial activity against Streptococcus pneumoniae Mef 10095; format: functional

C=C[C@]12OC(=O)N(CCCCn3cnc(-c4ccc(C)nc4)c3)[C@@H]1[C@@H](C)C(=O)[C@H](C)C[C@@](C)(OC)[C@H](O[C@@H]1O[C@H](C)C[C@H](N(C)C)[C@H]1O)[C@@H](C)C(=O)[C@@H](C)C(=O)O[C@@H]2CC
MIC (Haemophilus influenzae [1]): 1.56 µg/mL (≈ 1.86 µM)
MIC (Staphylococcus aureus [2]): 0.2 µg/mL (≈ 0.239 µM)
MIC (Staphylococcus aureus [3]): > 50 µg/mL
MIC (Streptococcus pneumoniae [4]): ≤ 0.013 µg/mL
MIC (Haemophilus influenzae [5]): 3.13 µg/mL (≈ 3.73 µM)
MIC (Streptococcus pneumoniae [6]): 0.2 µg/mL (≈ 0.239 µM)
MIC (Streptococcus pneumoniae [7]): 0.1 µg/mL (≈ 0.119 µM)
MIC (Streptococcus pneumoniae [8]): 0.2 µg/mL (≈ 0.239 µM)
half-life [9]: 144 min
MIC (Streptococcus pneumoniae [10]): 0.4 µg/mL (≈ 0.477 µM)
MIC (Streptococcus pneumoniae [11]): 0.2 µg/mL (≈ 0.239 µM)
MIC (Streptococcus pneumoniae [12]): 1.56 µg/mL (≈ 1.86 µM)
Kp [13]: 80
AUC (Rattus norvegicus [14]): 2.1 µg·h/mL
MIC (Streptococcus pneumoniae [15]): 0.1 µg/mL (≈ 0.119 µM)
Activity (Rattus norvegicus [16]): Active
MIC (Streptococcus pneumoniae [17]): ≤ 0.05 µg/mL
MIC (Streptococcus pneumoniae [18]): 0.025 µg/mL (≈ 0.0298 µM)
MIC (Streptococcus pneumoniae [19]): 0.4 µg/mL (≈ 0.477 µM)
MIC (Streptococcus pneumoniae [20]): 0.025 µg/mL (≈ 0.0298 µM)
half-life [21]: 204 min
MIC [22]: 0.2 µg/mL (≈ 0.239 µM)
MIC (Streptococcus pneumoniae [23]): ≤ 0.05 µg/mL
MIC (Streptococcus pneumoniae [24]): 0.025 µg/mL (≈ 0.0298 µM)
MIC (Streptococcus pneumoniae [25]): 0.4 µg/mL (≈ 0.477 µM)
half-life [26]: 96 min
MIC (Streptococcus pneumoniae [27]): 0.2 µg/mL (≈ 0.239 µM)
MIC (Streptococcus pneumoniae [28]): ≤ 0.013 µg/mL
MIC (Streptococcus pneumoniae [29]): 0.05 µg/mL (≈ 0.0597 µM)
MIC (Streptococcus pneumoniae [30]): 0.025 µg/mL (≈ 0.0298 µM)
MIC (Streptococcus pneumoniae [31]): 0.025 µg/mL (≈ 0.0298 µM)
MIC (Streptococcus pneumoniae [32]): 0.4 µg/mL (≈ 0.477 µM)
MIC (Streptococcus pneumoniae [33]): 0.1 µg/mL (≈ 0.119 µM)
MIC (Streptococcus pneumoniae [34]): 0.025 µg/mL (≈ 0.0298 µM)
MIC (Streptococcus pneumoniae [35]): 0.2 µg/mL (≈ 0.239 µM)
MIC (Streptococcus pneumoniae [36]): 0.4 µg/mL (≈ 0.477 µM)
MIC (Streptococcus pneumoniae [37]): 0.2 µg/mL (≈ 0.239 µM)
MIC (Streptococcus pneumoniae [38]): <=0.05 ug ml-1
MIC (Streptococcus pneumoniae [39]): 0.1 µg/mL (≈ 0.119 µM)
Vd [40]: 14 L/kg
MIC (Enterococcus faecalis [41]): 0.1 µg/mL (≈ 0.119 µM)
MIC (Streptococcus pneumoniae [42]): 0.2 µg/mL (≈ 0.239 µM)
MIC (Streptococcus pneumoniae [43]): 0.025 µg/mL (≈ 0.0298 µM)
MIC (Streptococcus pneumoniae [44]): 0.78 µg/mL (≈ 0.931 µM)
bioavailability [45]: 35%
MIC (Streptococcus pneumoniae [46]): ≤ 0.05 µg/mL
MIC (Streptococcus pneumoniae [47]): 0.025 µg/mL (≈ 0.0298 µM)
MIC (Streptococcus pneumoniae [48]): 0.2 µg/mL (≈ 0.239 µM)
MIC (Streptococcus pneumoniae [49]): 0.4 µg/mL (≈ 0.477 µM)
MIC (Streptococcus pneumoniae [50]): 0.025 µg/mL (≈ 0.0298 µM)
MIC (Streptococcus pneumoniae [51]): ≤ 0.05 µg/mL
MIC (Streptococcus pneumoniae [52]): 0.025 µg/mL (≈ 0.0298 µM)
MIC (Enterococcus faecalis [53]): 0.78 µg/mL (≈ 0.931 µM)
MIC (Streptococcus pneumoniae [54]): 0.2 µg/mL (≈ 0.239 µM)
MIC (Streptococcus pneumoniae [55]): 0.1 µg/mL (≈ 0.119 µM)
MIC (Streptococcus pneumoniae [56]): ≤ 0.05 µg/mL
MIC [57]: 0.2 µg/mL (≈ 0.239 µM)
MIC (Streptococcus pneumoniae [58]): 0.1 µg/mL (≈ 0.119 µM)
MIC (Streptococcus pneumoniae [59]): 3.13 µg/mL (≈ 3.73 µM)
MIC (Streptococcus pyogenes): ≤ 0.05 µg/mL
Activity (Rattus norvegicus [60]): Active
MIC (Streptococcus pneumoniae [61]): ≤ 0.05 µg/mL
